# Experimental data reported in patent publication US20240116910A1, “Heterocycles as WIP1 Inhibitors” (PMV Pharmaceuticals, Inc., priority 2022, published 2024).
# Biological target: recombinant His-tag Wip1(2-420) protein (amino acids #2-420) (Homo sapiens (Human), UniProt O15297)
# Test: Wip1(2-420) phosphatase enzyme FDP assay
# Assay type: biochemical
# Conditions: fluorescein diphosphate (FDP) substrate, RT 2 hours, fluorescence Ex485/Em535; read-out: WIP1 (Truncated 2-420) FDP Assay: IC50
# Chain of recombinant His-tag Wip1(2-420) protein (amino acids #2-420) (O15297 2-420): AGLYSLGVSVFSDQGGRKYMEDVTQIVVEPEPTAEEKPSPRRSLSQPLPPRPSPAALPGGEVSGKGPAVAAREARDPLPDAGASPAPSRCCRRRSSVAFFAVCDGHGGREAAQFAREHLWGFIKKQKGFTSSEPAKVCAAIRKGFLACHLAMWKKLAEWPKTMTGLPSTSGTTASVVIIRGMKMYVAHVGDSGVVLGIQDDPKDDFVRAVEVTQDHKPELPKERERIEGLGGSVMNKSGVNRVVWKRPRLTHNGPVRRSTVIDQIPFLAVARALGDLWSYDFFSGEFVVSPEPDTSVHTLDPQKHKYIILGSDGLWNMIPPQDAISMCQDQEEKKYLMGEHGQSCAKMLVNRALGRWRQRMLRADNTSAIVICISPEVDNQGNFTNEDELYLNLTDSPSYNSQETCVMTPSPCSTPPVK
row,Structure (SMILES),IC50 [nM]
1,"CC(Nc1cc(Cl)cnc1C(C)(C)O)c1ccc(C(=O)N[C@@H](CC2CCCC2)C(=O)NC2CC2)s1 (stereo partly drawn) [Compound 203, (2S)-2-{[5-(1-{[5-chloro-2-(2-hydroxypropan-2-yl)pyridin-3-yl]amino}ethyl)thiophen-2-yl]formamido}-3-cyclopentyl-N-cyclopropylpropanamide]",17
2,"COCCOCCNC(=O)[C@H](CC1CCCC1)NC(=O)c1ccc([C@H](C)Nc2cc(Cl)cnc2C)s1 [Compound 204, (2S)-2-({5-[(1S)-1-[(5-chloro-2-methylpyridin-3-yl)amino]ethyl]thiophen-2-yl}formamido)-3-cyclopentyl-N-[2-(2-methoxyethoxy)ethyl]propanamide]",102
3,"C[C@H](Nc1cc(Cl)cnc1C(=O)N(C)C)c1ccc(C(=O)N[C@@H](CC2CCCC2)C(=O)NC2CC2)s1 [Compound 205, 5-chloro-3-{[(1S)-1-(5-{[(1S)-2-cyclopentyl-1-(cyclopropylcarbamoyl)ethyl]carbamoyl}thiophen-2-yl)ethyl]amino}-N,N-dimethylpyridine-2-carboxamide]",29
4,"Cc1ncc(Cl)cc1NC(Cc1ccccc1)c1ccc(C(=O)N[C@@H](CC2CCCC2)C(=O)NC23CC(F)(C2)C3)s1 (stereo partly drawn) [Compound 212, (2S)-2-[(5-{1-[(5-chloro-2-methylpyridin-3-yl)amino]-2-phenylethyl}thiophen-2-yl)formamido]-3-cyclopentyl-N-{3-fluorobicyclo[1.1.1]pentan-1-yl}propanamide]",23
5,"Cc1ncc(Cl)cc1N[C@H](Cc1ccccc1)c1ccc(C(=O)N[C@@H](CC2CCCC2)C(=O)NC23CC(C#N)(C2)C3)s1 [Compound 213, (2S)-2-({5-[(1R)-1-[(5-chloro-2-methylpyridin-3-yl)amino]-2-phenylethyl]thiophen-2-yl}formamido)-N-{3-cyanobicyclo[1.1.1]pentan-1-yl}-3-cyclopentylpropanamide]",166
6,"Cc1ncc(Cl)cc1N[C@@H](Cc1ccccc1)c1ccc(C(=O)N[C@@H](CC2CCCC2)C(=O)NC23CC(C#N)(C2)C3)s1 [Compound 214, (2S)-2-({5-[(1S)-1-[(5-chloro-2-methylpyridin-3-yl)amino]-2-phenylethyl]thiophen-2-yl}formamido)-N-{3-cyanobicyclo[1.1.1]pentan-1-yl}-3-cyclopentylpropanamide]",20
7,"Cc1ncc(Cl)cc1N[C@H](Cc1ccccc1)c1ccc(C(=O)N[C@@H](CC2CCCC2)C(=O)NC23CC(C2)C3)s1 [Compound 215, (2S)-N-{bicyclo[1.1.1]pentan-1-yl}-2-({5-[(1R)-1-[(5-chloro-2-methylpyridin-3-yl)amino]-2-phenylethyl]thiophen-2-yl}formamido)-3-cyclopentylpropanamide]",101
8,"Cc1ncc(Cl)cc1N[C@@H](C)c1ccc(C(=O)N[C@@H](CCC(C)C)C(=O)NC2CC2)s1 [Compound 217, (2S)-2-({5-[(1S)-1-[(5-chloro-2-methylpyridin-3-yl)amino]ethyl]thiophen-2-yl}formamido)-N-cyclopropyl-5-methylhexanamide]",27
9,"Cc1ncc(Cl)cc1N[C@H](Cc1ccc(F)cc1)c1ccc(C(=O)N[C@@H](CC2CCCC2)C(=O)NC2CC2)s1 [Compound 222, (2S)-2-({5-[(1R)-1-[(5-chloro-2-methylpyridin-3-yl)amino]-2-(4-fluorophenyl)ethyl]thiophen-2-yl}formamido)-3-cyclopentyl-N-cyclopropylpropanamide]",68
10,"Cc1ncc(Cl)cc1NC(c1ccc(C(=O)N[C@@H](CC2CCCC2)C(=O)NC2CC2)s1)C(F)(F)F (stereo partly drawn) [Compound 224, (2S)-2-[(5-{1-[(5-chloro-2-methylpyridin-3-yl)amino]-2,2,2-trifluoroethyl}thiophen-2-yl)formamido]-3-cyclopentyl-N-cyclopropylpropanamide]",132
11,"Cc1ncc(Cl)cc1NC(c1ccc(C(=O)N[C@@H](CC2CCCC2)C(=O)NC23CC(C2)C3)s1)C(F)(F)F (stereo partly drawn) [Compound 225, (2S)-N-{bicyclo[1.1.1]pentan-1-yl}-2-[(5-{1-[(5-chloro-2-methylpyridin-3-yl)amino]-2,2,2-trifluoroethyl}thiophen-2-yl)formamido]-3-cyclopentylpropanamide]",89
12,"CC(Nc1cc(Cl)ccc1C(C)(C)O)c1ccc(C(=O)N[C@@H](CC2CCCC2)C(=O)NC2CC2)s1 (stereo partly drawn) [Compound 229, (2S)-2-{[5-(1-{[5-chloro-2-(2-hydroxypropan-2-yl)phenyl]amino}ethyl)thiophen-2-yl]formamido}-3-cyclopentyl-N-cyclopropylpropanamide]",20
13,"C[C@@H](Nc1cc(Cl)cnc1-c1cccc(Cl)c1)c1ccc(C(=O)N[C@@H](CC2CCCC2)C(=O)NC2CC2)s1 [Compound 230, (2S)-2-({5-[(1R)-1-{[5-chloro-2-(3-chlorophenyl)pyridin-3-yl]amino}ethyl]thiophen-2-yl}formamido)-3-cyclopentyl-N-cyclopropylpropanamide]",196
14,"C[C@@H](Nc1cc(Cl)cnc1-c1cccnc1)c1ccc(C(=O)N[C@@H](CC2CCCC2)C(=O)NC2CC2)s1 [Compound 233, (2S)-2-({5-[(1R)-1-({5-chloro-[2,3′-bipyridin]-3-yl}amino)ethyl]thiophen-2-yl}formamido)-3-cyclopentyl-N-cyclopropylpropanamide]",293
15,"Cc1ncc(Cl)cc1N[C@@H](C)c1ccc(C(=O)N[C@@H](C(=O)NC2CC2)C(C)(C)C)s1 [Compound 234, (2R)-2-({5-[(1S)-1-[(5-chloro-2-methylpyridin-3-yl)amino]ethyl]thiophen-2-yl}formamido)-N-cyclopropyl-3,3-dimethylbutanamide]",> 10000
16,"Cc1ncc(Cl)cc1N[C@@H](C)c1ccc(C(=O)N[C@H](C(=O)NC2CC2)C(C)(C)C)s1 [Compound 235, (2S)-2-({5-[(1S)-1-[(5-chloro-2-methylpyridin-3-yl)amino]ethyl]thiophen-2-yl}formamido)-N-cyclopropyl-3,3-dimethylbutanamide]",5660

# These reach a lower IC50. Values come first.
row,IC50 [nM],Structure (SMILES)
1,10,"Cc1ncc(Cl)cc1N[C@@H](C)c1ccc(C(=O)N[C@@H](CC2CCCC2)C(=O)N[C@H]2C[C@H](C#N)C2)s1 [Compound 211, (2S)-2-({5-[(1S)-1-[(5-chloro-2-methylpyridin-3-yl)amino]ethyl]thiophen-2-yl}formamido)-3-cyclopentyl-N-[(1r,3r)-3-cyanocyclobutyl]propanamide]"
2,12,"Cc1ncc(Cl)cc1N[C@@H](Cc1ccccc1)c1ccc(C(=O)N[C@@H](CC2CCCC2)C(=O)NC23CC(C2)C3)s1 [Compound 216, (2S)-N-{bicyclo[1.1.1]pentan-1-yl}-2-({5-[(1S)-1-[(5-chloro-2-methylpyridin-3-yl)amino]-2-phenylethyl]thiophen-2-yl}formamido)-3-cyclopentylpropanamide]"
3,6,"COCCn1cc(NC(=O)[C@H](CC2CCCC2)NC(=O)c2ccc([C@H](C)Nc3cc(Cl)cnc3C)s2)cn1 [Compound 220, (2S)-2-({5-[(1S)-1-[(5-chloro-2-methylpyridin-3-yl)amino]ethyl]thiophen-2-yl}formamido)-3-cyclopentyl-N-[1-(2-methoxyethyl)-1H-pyrazol-4-yl]propanamide]"
4,6,"Cc1ncc(Cl)cc1N[C@@H](C)c1ccc(C(=O)N[C@@H](CC2CCCC2)C(=O)N[C@H]2C[C@@H](C#N)C2)s1 [Compound 221, (2S)-2-({5-[(1S)-1-[(5-chloro-2-methylpyridin-3-yl)amino]ethyl]thiophen-2-yl}formamido)-3-cyclopentyl-N-[(1s,3s)-3-cyanocyclobutyl]propanamide]"
5,11,"Cc1ncc(Cl)cc1N[C@@H](Cc1ccc(F)cc1)c1ccc(C(=O)N[C@@H](CC2CCCC2)C(=O)NC2CC2)s1 [Compound 223, (2S)-2-({5-[(1S)-1-[(5-chloro-2-methylpyridin-3-yl)amino]-2-(4-fluorophenyl)ethyl]thiophen-2-yl}formamido)-3-cyclopentyl-N-cyclopropylpropanamide]"
6,11,"COCc1ncc(Cl)cc1N[C@@H](C)c1ccc(C(=O)N[C@@H](CC2CCCC2)C(=O)NC2CC2)s1 [Compound 226, (2S)-2-({5-[(1S)-1-{[5-chloro-2-(methoxymethyl)pyridin-3-yl]amino}ethyl]thiophen-2-yl}formamido)-3-cyclopentyl-N-cyclopropylpropanamide]"
7,8,"Cc1ncc(Cl)cc1N[C@@H](C)c1ccc(C(=O)N[C@@H](CC2CCCC2)C(=O)Nc2cn[nH]c2)s1 [Compound 227, (2S)-2-({5-[(1S)-1-[(5-chloro-2-methylpyridin-3-yl)amino]ethyl]thiophen-2-yl}formamido)-3-cyclopentyl-N-(1H-pyrazol-4-yl)propanamide]"
8,5,"C[C@H](Nc1cc(Cl)cnc1C(N)=O)c1ccc(C(=O)N[C@@H](CC2CCCC2)C(=O)NC2CC2)s1 [Compound 228, 5-chloro-3-{[(1S)-1-(5-{[(1S)-2-cyclopentyl-1-(cyclopropylcarbamoyl)ethyl]carbamoyl}thiophen-2-yl)ethyl]amino}pyridine-2-carboxamide]"
9,8,"C[C@H](Nc1cc(Cl)cnc1-c1cccc(Cl)c1)c1ccc(C(=O)N[C@@H](CC2CCCC2)C(=O)NC2CC2)s1 [Compound 231, (2S)-2-({5-[(1S)-1-{[5-chloro-2-(3-chlorophenyl)pyridin-3-yl]amino}ethyl]thiophen-2-yl}formamido)-3-cyclopentyl-N-cyclopropylpropanamide]"
10,13,"C[C@H](Nc1cc(Cl)cnc1-c1cccnc1)c1ccc(C(=O)N[C@@H](CC2CCCC2)C(=O)NC2CC2)s1 [Compound 232, (2S)-2-({5-[(1S)-1-({5-chloro-[2,3′-bipyridin]-3-yl}amino)ethyl]thiophen-2-yl}formamido)-3-cyclopentyl-N-cyclopropylpropanamide]"
11,7,"COc1ccc(-c2ncc(Cl)cc2N[C@@H](C)c2ccc(C(=O)N[C@@H](CC3CCCC3)C(=O)NC3CC3)s2)cc1 [Compound 236, (2S)-2-({5-[(1S)-1-{[5-chloro-2-(4-methoxyphenyl)pyridin-3-yl]amino}ethyl]thiophen-2-yl}formamido)-3-cyclopentyl-N-cyclopropylpropanamide]"
